We go through 19 molecules from ChEMBL document CHEMBL4052764, “Development of a prodrug of hydantoin based TACE inhibitor” (Bioorg Med Chem Lett, 2017).

One series has as its system Canis familiaris. The experiment in a line: Oral bioavailability in dog assessed as (S)-5-(furo[3,2-b]pyridin-2-yl)-5-((6-methoxy-1-oxoisoindolin-2-yl)methyl)imidazolidine-2,4-dione level by LC/MS/MS analysis. It is filed as ADME, organism-based, Canis lupus familiaris. The note with it: in vivo.
Series [1] relates to Rattus norvegicus. The experiment in a line: AUC in rat assessed as (S)-5-(furo[3,2-b]pyridin-2-yl)-5-((6-methoxy-1-oxoisoindolin-2-yl)methyl)imidazolidine-2,4-dione level at 100 mg/kg, po administered as single dose by LC/MS/MS analysis. Particulars: in vivo. The class given is ADME, organism-based.
The subject of series [2] is Rattus norvegicus. In words: AUC in rat assessed as (S)-5-(furo[3,2-b]pyridin-2-yl)-5-((6-methoxy-1-oxoisoindolin-2-yl)methyl)imidazolidine-2,4-dione level at 300 mg/kg, po administered as single dose by LC/MS/MS analysis. Particulars: in vivo. It is filed as ADME, organism-based.
Series [3] can be described thus: Prodrug activation in human intestinal microsomes assessed as (S)-5-(furo[3,2-b]pyridin-2-yl)-5-((6-methoxy-1-oxoisoindolin-2-yl)methyl)imidazolidine-2,4-dione formation. Also on record: species or system Intestine, Microsome.
In series [4] the test system is Liver. In words: Prodrug activation in human liver microsomes assessed as (S)-5-(furo[3,2-b]pyridin-2-yl)-5-((6-methoxy-1-oxoisoindolin-2-yl)methyl)imidazolidine-2,4-dione formation. It is filed as microsome.
Series [5] has as its system Rattus norvegicus. The experiment in a line: AUC in rat assessed as (S)-5-(furo[3,2-b]pyridin-2-yl)-5-((6-methoxy-1-oxoisoindolin-2-yl)methyl)imidazolidine-2,4-dione level at 10 mg/kg, po by HPLC/MS analysis. Particulars: in vivo. The class given is ADME, organism-based.
In series [6] the test system is Rattus norvegicus. The experiment in a line: AUC in rat assessed as (S)-5-(furo[3,2-b]pyridin-2-yl)-5-((6-methoxy-1-oxoisoindolin-2-yl)methyl)imidazolidine-2,4-dione level at 500 mg/kg, po administered as single dose by LC/MS/MS analysis. It is filed as ADME, organism-based. Particulars: in vivo.
In series [7] the test system is Liver. The experiment in a line: Prodrug activation in rat liver microsomes assessed as (S)-5-(furo[3,2-b]pyridin-2-yl)-5-((6-methoxy-1-oxoisoindolin-2-yl)methyl)imidazolidine-2,4-dione formation. The class given is microsome.
The subject of the next series is Rhesus monkey. In words: Oral bioavailability in monkey assessed as (S)-5-(furo[3,2-b]pyridin-2-yl)-5-((6-methoxy-1-oxoisoindolin-2-yl)methyl)imidazolidine-2,4-dione level by LC/MS/MS analysis. The class given is ADME, organism-based, Macaca mulatta. The note with it: in vivo.
In series [8] the test system is Liver. The experiment in a line: Prodrug activation in dog liver microsomes assessed as (S)-5-(furo[3,2-b]pyridin-2-yl)-5-((6-methoxy-1-oxoisoindolin-2-yl)methyl)imidazolidine-2,4-dione formation. It is filed as Canis lupus familiaris, microsome.
Series [9] is described as follows: Permeability in human Caco2 cells at pH 7.4. The class given is ADME, cell-based. Particulars: Caco-2, pH 7.4, read-out: permeability.
The subject of series [10] is Rattus norvegicus. The experiment in a line: Oral bioavailability in rat assessed as (S)-5-(furo[3,2-b]pyridin-2-yl)-5-((6-methoxy-1-oxoisoindolin-2-yl)methyl)imidazolidine-2,4-dione level at 10 mg/kg by LC/MS/MS analysis. The class given is ADME, organism-based. Particulars: in vivo.
Series [11] addresses Disintegrin and metalloproteinase domain-containing protein 17 (Homo sapiens, UniProt P78536). In words: Inhibition of TACE in human whole blood assessed as inhibition of LPS-stimulated TNFalpha production pretreated for 1 hr followed by LPS stimulation for 3.5 hrs by ELISA.
Series [12] can be described thus: Solubility of the compound at pH 6.5. The class given is physicochemical. Particulars: buffer.
The test system of series [13] is Liver. In words: Prodrug activation in mouse liver microsomes assessed as (S)-5-(furo[3,2-b]pyridin-2-yl)-5-((6-methoxy-1-oxoisoindolin-2-yl)methyl)imidazolidine-2,4-dione formation. The class given is microsome.
A short description of series [14]: Prodrug activation in monkey liver microsomes assessed as (S)-5-(furo[3,2-b]pyridin-2-yl)-5-((6-methoxy-1-oxoisoindolin-2-yl)methyl)imidazolidine-2,4-dione formation. Particulars: rhesus monkey. The class given is Macaca mulatta, microsome.
Series [15] in a line: AUC in rat at 10 mg/kg, po by HPLC/MS analysis. Particulars: in vivo. It is filed as ADME, organism-based.
Series [16] in a line: AUC in rat at 500 mg/kg, po administered as single dose by LC/MS/MS analysis. The class given is ADME, organism-based. The note with it: in vivo.
Series [17] can be described thus: AUC in rat at 100 mg/kg, po administered as single dose by LC/MS/MS analysis. The class given is ADME, organism-based. The note with it: in vivo.
Series [18] can be described thus: AUC in rat at 300 mg/kg, po administered as single dose by LC/MS/MS analysis. It is filed as ADME, organism-based. The note with it: in vivo.
A short description of series [19]: AUC in monkey at 10 mg/kg, po by LC/MS/MS analysis. It is filed as ADME, organism-based, Macaca mulatta. The note with it: rhesus monkey, in vivo.
Series [20] is described as follows: Oral bioavailability in rat at 10 mg/kg by LC/MS/MS analysis. The class given is ADME, organism-based. The note with it: in vivo.
Series [21] can be described thus: Oral bioavailability in dog at 10 mg/kg by LC/MS/MS analysis. The class given is ADME, organism-based, Canis lupus familiaris. The note with it: in vivo.
Series [22] is described as follows: AUC in dog at 10 mg/kg, po by LC/MS/MS analysis. It is filed as ADME, organism-based, Canis lupus familiaris. The note with it: in vivo.
Series [23] can be described thus: AUC in rat at 10 mg/kg, po by LC/MS/MS analysis. The class given is ADME, organism-based. Particulars: in vivo.
A short description of series [24]: Oral bioavailability in monkey at 10 mg/kg by LC/MS/MS analysis. It is filed as ADME, organism-based, Macaca mulatta. The note with it: rhesus monkey, in vivo.
The subject of series [25] is Rattus norvegicus. The experiment in a line: AUC in rat assessed as (S)-5-(5-(4-ethylpiperazin-1-yl)furo[3,2-b]pyridin-2-yl)-5-((7-fluoro-6-methoxy-1-oxoisoindolin-2-yl)methyl)imidazolidine-2,4-dione level at 10 mg/kg, po by LC/MS/MS analysis. The class given is ADME, organism-based. Particulars: in vivo.
Series [26] concerns Rattus norvegicus. The experiment in a line: Oral bioavailability in rat assessed as (S)-5-(5-(4-ethylpiperazin-1-yl)furo[3,2-b]pyridin-2-yl)-5-((7-fluoro-6-methoxy-1-oxoisoindolin-2-yl)methyl)imidazolidine-2,4-dione level at 10 mg/kg by LC/MS/MS analysis. It is filed as ADME, organism-based. The note with it: in vivo.

Structures are written as SMILES. ≈ marks a conversion by molar mass, not a printed value.

Sequence of Disintegrin and metalloproteinase domain-containing protein 17 (P78536 whole entry, the tested form may be a part): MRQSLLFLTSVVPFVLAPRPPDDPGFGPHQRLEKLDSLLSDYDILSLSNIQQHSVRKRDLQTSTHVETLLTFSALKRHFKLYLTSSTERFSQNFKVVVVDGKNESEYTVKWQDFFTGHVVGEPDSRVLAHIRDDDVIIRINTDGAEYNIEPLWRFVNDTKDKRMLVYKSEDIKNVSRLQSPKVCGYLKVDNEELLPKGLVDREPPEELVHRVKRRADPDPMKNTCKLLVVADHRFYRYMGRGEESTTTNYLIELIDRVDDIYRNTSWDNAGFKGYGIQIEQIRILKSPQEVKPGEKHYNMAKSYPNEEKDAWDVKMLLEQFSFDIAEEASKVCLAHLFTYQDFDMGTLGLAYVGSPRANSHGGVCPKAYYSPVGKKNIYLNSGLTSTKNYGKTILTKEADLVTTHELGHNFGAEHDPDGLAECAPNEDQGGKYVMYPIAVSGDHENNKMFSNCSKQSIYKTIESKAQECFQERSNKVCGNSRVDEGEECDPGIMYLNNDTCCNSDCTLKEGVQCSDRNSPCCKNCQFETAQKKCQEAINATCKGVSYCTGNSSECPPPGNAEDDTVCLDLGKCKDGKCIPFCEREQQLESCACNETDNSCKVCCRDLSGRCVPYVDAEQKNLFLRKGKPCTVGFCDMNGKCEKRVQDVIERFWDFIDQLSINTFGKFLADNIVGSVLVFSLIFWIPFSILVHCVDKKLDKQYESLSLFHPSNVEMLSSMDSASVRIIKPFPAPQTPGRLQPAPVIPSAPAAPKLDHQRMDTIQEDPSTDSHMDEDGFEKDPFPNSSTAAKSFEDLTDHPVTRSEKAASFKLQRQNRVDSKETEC

Take `COc1ccc2c(c1)C(=O)N(C[C@@]1(c3cc4ncccc4o3)NC(=O)N(COC(=O)C(C)(C)C)C1=O)C2`: the results for the F in the series on Canis familiaris, in the series with Rhesus monkey and with Rattus norvegicus [10] were 72%, 92% and 74%, respectively. For the same molecule, the area under the curve (AUC) is 210 µM·h in the series on Rattus norvegicus [1], 780 µM·h with Rattus norvegicus [2], 13.1 µM·h with Rattus norvegicus [5] and 1450 µM·h in the series with Rattus norvegicus [6]. Besides, the Drug metabolism result (in series [3]; with Liver [4]; in the series with Liver [7]; in the series with Liver [8]; in the series on Liver [13]; in series [14]) was “Metabolite_Detected” in each case. Moreover, in series [9], the Papp was > 116 nm/s. Moreover, in [11], the IC50 amounted to 0.281 µM. In series [12], the concentration in solution (solubility) was 175 µM (≈ 88.6 µg/mL).
Turning to `CCN1C(=O)N[C@@](CN2Cc3ccc(OC)cc3C2=O)(c2cc3ncccc3o2)C1=O`, the area under the curve (AUC) in the series with Rattus norvegicus [5] is 0.9 µM·h.
With `COc1ccc2c(c1)C(=O)N(C[C@@]1(c3cc4ncccc4o3)NC(=O)N(COC(=O)c3ccccc3OC(C)=O)C1=O)C2`, in the series on Rattus norvegicus [5], the AUC was determined as 4.4 µM·h. For the same molecule, in series [11], the IC50 was 0.56 µM.
In the case of `COc1ccc2c(c1)C(=O)N(C[C@@]1(c3cc4ncccc4o3)NC(=O)NC1=O)C2`, the AUC in series [15] was found to be 8.6 µM·h; in [16], 240 µM·h; in [17], 120 µM·h; in series [18], 130 µM·h. The Papp in series [9] turned out to be 12 nm/s. Besides, the concentration for half-maximal inhibition (IC50) in series [11] was 0.287 µM. In [12], this molecule registered a solubility of 39 µM (≈ 15.3 µg/mL).
For the molecule `CCN1CCN(c2ccc3oc([C@]4(CN5Cc6ccc(OC)cc6C5=O)NC(=O)N(COC(=O)C(C)(C)C)C4=O)cc3n2)CC1`, in the series with Rattus norvegicus [5], the AUC was found to be 0.7 µM·h. For the same molecule, the IC50 in series [11] came to 0.176 µM.
Taken in the same sequence, the figures for `COc1ccc2c(c1F)C(=O)N(C[C@@]1(c3cc4nc(N5CCNC(=O)C5)ccc4o3)NC(=O)N(COC(=O)C(C)(C)C)C1=O)C2` were 0.6 µM·h and 0.104 µM.
Consider `COc1ccc2c(c1)C(=O)N(C[C@@]1(c3cc4ncccc4o3)NC(=O)NC1=O)C2.[Na+]`, for which the values for the exposure (AUC) in series [19], in [22] and in series [23] were 5.2 µM·h, 41 µM·h and 10 µM·h, respectively. For the same molecule, the bioavailability in series [20] was determined as 35%; in series [21], 82%; in [24], 46%.
With `COc1ccc2c(c1F)C(=O)N(C[C@@]1(c3cc4nc(N5CCN(C)CC5)ccc4o3)NC(=O)N(COC(=O)C(C)(C)C)C1=O)C2`, the area under the curve (AUC) in the series with Rattus norvegicus [5] was found to be 8.6 µM·h. In addition, in [11], the IC50 was determined as 0.092 µM.
Turning to `COc1ccc2c(c1)C(=O)N(C[C@@]1(c3cc4ncccc4o3)NC(=O)N(C(C)C)C1=O)C2`, the AUC with Rattus norvegicus [5] worked out at 0.4 µM·h. The IC50 in series [11] came to 7.15 µM.
On to `COc1ccc2c(c1)C(=O)N(C[C@@]1(c3cc4nc(N5CCNCC5)ccc4o3)NC(=O)N(COC(=O)C(C)(C)C)C1=O)C2`, for which the IC50 in [11] was found to be 0.156 µM.
Consider `COc1ccc2c(c1F)C(=O)N(C[C@@]1(c3cc4nc(-c5cn[nH]c5)ccc4o3)NC(=O)N(COC(=O)C(C)(C)C)C1=O)C2`, for which the AUC in the series with Rattus norvegicus [5] amounted to 0.3 µM·h. The IC50 in [11] was 0.141 µM.
Regarding `CCN1CCN(c2ccc3oc([C@]4(CN5Cc6ccc(OC)c(F)c6C5=O)NC(=O)N(COC(=O)C(C)(C)C)C4=O)cc3n2)CC1`, the AUC in the series on Rattus norvegicus [5] was found to be 20 µM·h; in the series with Rattus norvegicus [25] it was 4.7 µM·h. In addition, the IC50 in [11] is 0.061 µM. Also, the F in the series with Rattus norvegicus [26] is reported as 7%.
As to `COc1ccc2c(c1F)C(=O)N(C[C@@]1(c3cc4nc(N)ccc4o3)NC(=O)N(COC(=O)C(C)(C)C)C1=O)C2`, the AUC in the series on Rattus norvegicus [5] worked out at 0.4 µM·h. For the same molecule, the 50% inhibitory concentration (IC50) in [11] worked out at 0.178 µM.
On to `COc1ccc2c(c1)C(=O)N(C[C@@]1(c3cc4nc(N5CCCNC5=O)ccc4o3)NC(=O)N(COC(=O)C(C)(C)C)C1=O)C2`, for which, in the series on Rattus norvegicus [5], the AUC amounted to 0.2 µM·h. The half-maximal inhibitory concentration (IC50) in [11] was 0.282 µM.
Turning to `COc1ccc2c(c1)C(=O)N(C[C@]1(c3cc4ncccc4o3)C(=O)N(COC(=O)C(C)(C)C)C(=O)N1COC(=O)C(C)(C)C)C2`, the AUC in the series with Rattus norvegicus [5] stood at 3.1 µM·h.
Take `COc1ccc2c(c1)C(=O)N(C[C@@]1(c3cc4nc(N5CC[C@@H](O)C5)ccc4o3)NC(=O)N(COC(=O)C(C)(C)C)C1=O)C2`: in the series on Rattus norvegicus [5], the AUC was found to be 2.7 µM·h. Besides, the concentration for half-maximal inhibition (IC50) in series [11] came to 0.339 µM.
For the molecule `COc1ccc2c(c1)C(=O)N(C[C@@]1(c3cc4ncccc4o3)NC(=O)N(C)C1=O)C2`, in the series on Rattus norvegicus [5], the AUC turned out to be 0.9 µM·h.
On to `CCOP(=O)(OCC)OCN1C(=O)N[C@@](CN2Cc3ccc(OC)cc3C2=O)(c2cc3ncccc3o2)C1=O`, for which the area under the curve (AUC) with Rattus norvegicus [5] worked out at 0.05 µM·h.
The same measure, in the same setting: for `COCCOCCOCCN1C(=O)N[C@@](CN2Cc3ccc(OC)cc3C2=O)(c2cc3ncccc3o2)C1=O` the value was 0.02 µM·h.
